Data from patent US10036011B2, “Scavenger compounds for improved sequencing-by-synthesis” (QIAGEN Waltham, Inc., priority 2016, dated 2018).
“Also recorded” adds a separate entry of the source.

Columns and labels:
[1] = IPA solubility and stability in Cleave 1 solution / Cleave Reagent formulations (concentration curve); assay type: physicochemical; settings: for Color / Precipitate / Solubility / pH: Cleave 1 solution
Description: IPA was initially tested for solubility and stability in Cleave Reagent formulations. […] IPA was then tested by sequencing in a head-to-head comparison with the reference cleaving reagent, gallic acid, to provide a performance benchmark. IPA was implemented into a sequencing workflow as a standalone powder component to the cleave reagent. See, Example IV.
This example tests alternative formulations and chemistry for a cleave mix including TCEP as a standard reducing agent and IPA as a radical oxygen scavenger. The goal is to test both solubility and the ease of implementation into a kit configuration.
Formation of solid components directly within a Cleave 1 solution using an IPA concentration curve (10 mM, 25 mM and 50 mM) was assessed by measuring solubility, color, precipitate observation and pH level.

[2] = Carnitine and acetylcarnitine solubility and stability in Cleave reagent; assay type: physicochemical; settings: for solubility into Cleave reagent: 10 mM, 25 mM and 50 mM; for stability against discoloration and precipitation: cleave reagent formulations, storage at room temperature; for solubility in cleave reagent formulations: over a range of concentrations; for stability of solutions (discoloration or precipitate): room temperature (RT), a few hours of storage
Description: L-carnitine and O-acetyl-carnitine were tested for solubility and stability in cleave reagent formulations similarly to IPA. […] See, Example V.
This example tests carnitine-based compounds for solubility into Cleave reagent. Various concentrations (10 mM, 25 mM and 50 mM) of carnitine and acetylcarnitine were tested for solubility and stability.

For `O=C(O)CCc1c[nH]c2ccccc12` [IPA, indole-3-propionic acid], which Color ([1]; 10 mM/2-8 C.°, 0 hours) is on record?
Its Color is “No color; also recorded: Transparent”.

What about the Precipitate ([1]; 10 mM/2-8 C.°, 0 hours) of the same molecule?
Its Precipitate is “None”.

What about the Solubility ([1]; 10 mM/2-8 C.°, 0 hours) of the same molecule?
Its Solubility is “Excellent”.

What about the pH ([1]; 10 mM/2-8 C.°, 0 hours) of the same molecule?
The pH was 12.81.

And the Color ([1]; 10 mM/2-8 C.°, 8 hours)?
The Color was “Transparent; also recorded: No color”.

What about the Precipitate ([1]; 10 mM/2-8 C.°, 8 hours) of the same molecule?
The Precipitate was “None”.

What about the Solubility ([1]; 10 mM/2-8 C.°, 8 hours) of the same molecule?
The Solubility was “Excellent”.

What about the pH ([1]; 10 mM/2-8 C.°, 8 hours) of the same molecule?
Its pH is 12.80.

And the Color ([1]; 10 mM/2-8 C.°, 48 hours)?
The Color was “Transparent; also recorded: No color”.

What about the Precipitate ([1]; 10 mM/2-8 C.°, 48 hours) of the same molecule?
Its Precipitate is “None”.

What about the Solubility ([1]; 10 mM/2-8 C.°, 48 hours) of the same molecule?
Its Solubility is “Excellent”.

What about the pH ([1]; 10 mM/2-8 C.°, 48 hours) of the same molecule?
The pH was 12.83.

What about the Color ([1]; 10 mM/RT, 0 hours) of the same molecule?
The Color was “Transparent; also recorded: No color”.

What about the Precipitate ([1]; 10 mM/RT, 0 hours) of the same molecule?
The Precipitate was “None”.

What about the Solubility ([1]; 10 mM/RT, 0 hours) of the same molecule?
Its Solubility is “Excellent”.

And the pH ([1]; 10 mM/RT, 0 hours)?
Its pH is 12.88.

What about the Color ([1]; 10 mM/RT, 8 hours) of the same molecule?
The Color was “Transparent; also recorded: No color”.

What about the Precipitate ([1]; 10 mM/RT, 8 hours) of the same molecule?
The Precipitate was “None”.

What about the Solubility ([1]; 10 mM/RT, 8 hours) of the same molecule?
Its Solubility is “Excellent”.

What about the pH ([1]; 10 mM/RT, 8 hours) of the same molecule?
The pH was 12.83.

And the Color ([1]; 10 mM/RT, 48 hours)?
The Color was “Transparent; also recorded: No color”.

And the Precipitate ([1]; 10 mM/RT, 48 hours)?
The Precipitate was “None”.

And the Solubility ([1]; 10 mM/RT, 48 hours)?
Its Solubility is “Excellent”.

And the pH ([1]; 10 mM/RT, 48 hours)?
Its pH is 12.79.

And the Precipitate ([1]; 25 mM RT, 0 hours)?
Its Precipitate is “None”.

And the Solubility ([1]; 25 mM RT, 0 hours)?
Its Solubility is “Excellent”.

What about the pH ([1]; 25 mM RT, 0 hours) of the same molecule?
Its pH is 12.78.

What about the Precipitate ([1]; 25 mM/2-8 C.°, 0 hours) of the same molecule?
The Precipitate was “None”.

And the Solubility ([1]; 25 mM/2-8 C.°, 0 hours)?
Its Solubility is “Excellent”.

What about the pH ([1]; 25 mM/2-8 C.°, 0 hours) of the same molecule?
The pH was 12.75.

What about the Precipitate ([1]; 25 mM/2-8 C.°, 8 hours) of the same molecule?
Its Precipitate is “None”.

And the Solubility ([1]; 25 mM/2-8 C.°, 8 hours)?
The Solubility was “Excellent”.

What about the pH ([1]; 25 mM/2-8 C.°, 8 hours) of the same molecule?
The pH was 12.71.

What about the Precipitate ([1]; 25 mM/2-8 C.°, 48 hours) of the same molecule?
Its Precipitate is “None”.

What about the Solubility ([1]; 25 mM/2-8 C.°, 48 hours) of the same molecule?
The Solubility was “Excellent”.

What about the pH ([1]; 25 mM/2-8 C.°, 48 hours) of the same molecule?
Its pH is 12.76.

What about the Precipitate ([1]; 25 mM/RT, 8 hours) of the same molecule?
The Precipitate was “None”.

And the Solubility ([1]; 25 mM/RT, 8 hours)?
The Solubility was “Excellent”.

And the pH ([1]; 25 mM/RT, 8 hours)?
The pH was 12.67.

And the Precipitate ([1]; 25 mM/RT, 48 hours)?
The Precipitate was “None”.

And the Solubility ([1]; 25 mM/RT, 48 hours)?
The Solubility was “Excellent”.

What about the pH ([1]; 25 mM/RT, 48 hours) of the same molecule?
Its pH is 12.71.

What about the Color ([1]; 50 mM/2-8 C.°, 0 hours) of the same molecule?
Its Color is “Transparent; also recorded: Pale yellow”.

What about the Precipitate ([1]; 50 mM/2-8 C.°, 0 hours) of the same molecule?
The Precipitate was “None”.

And the Solubility ([1]; 50 mM/2-8 C.°, 0 hours)?
Its Solubility is “Excellent”.

What about the pH ([1]; 50 mM/2-8 C.°, 0 hours) of the same molecule?
The pH was 12.67.

And the Precipitate ([1]; 50 mM/2-8 C.°, 8 hours)?
Its Precipitate is “None”.

And the Solubility ([1]; 50 mM/2-8 C.°, 8 hours)?
Its Solubility is “Excellent”.

What about the pH ([1]; 50 mM/2-8 C.°, 8 hours) of the same molecule?
Its pH is 12.61.

And the Precipitate ([1]; 50 mM/2-8 C.°, 48 hours)?
The Precipitate was “None”.

What about the Solubility ([1]; 50 mM/2-8 C.°, 48 hours) of the same molecule?
Its Solubility is “Excellent”.

And the pH ([1]; 50 mM/2-8 C.°, 48 hours)?
Its pH is 12.64.

What about the Precipitate ([1]; 50 mM/RT, 0 hours) of the same molecule?
Its Precipitate is “None”.

What about the Solubility ([1]; 50 mM/RT, 0 hours) of the same molecule?
Its Solubility is “Excellent”.

What about the pH ([1]; 50 mM/RT, 0 hours) of the same molecule?
The pH was 12.61.

And the Precipitate ([1]; 50 mM/RT, 8 hours)?
Its Precipitate is “None”.

What about the Solubility ([1]; 50 mM/RT, 8 hours) of the same molecule?
The Solubility was “Excellent”.

And the pH ([1]; 50 mM/RT, 8 hours)?
The pH was 12.69.

What about the Precipitate ([1]; 50 mM/RT, 48 hours) of the same molecule?
The Precipitate was “None”.

And the Solubility ([1]; 50 mM/RT, 48 hours)?
The Solubility was “Excellent”.

What about the pH ([1]; 50 mM/RT, 48 hours) of the same molecule?
The pH was 12.72.

What about the “stability against discoloration and precipitation” value ([1]; Cleave Reagent formulations, prolonged storage at room temperature) of the same molecule?
Its value is “stable against discoloration and precipitation”.

And the “stability (lack of discoloration and/or formation of precipitate)” value ([1]; aqueous solution at pH ~12)?
Its value is “relative stability”.

And the “solubility in cleave reagent formulations” value ([1]; over a range of concentrations)?
Its value is “highly soluble”.

And the “solubility in aqueous solution” value ([1]; pH ~12)?
The value was “highly soluble”.

For `C[N+](C)(C)C[C@H](O)CC(=O)[O-]` [L-carnitine], which “solubility into Cleave reagent” value [2] is on record?
Its value is “very soluble”.

And the “stability against discoloration and precipitation” value [2]?
Its value is “stable against discoloration and precipitation”.

What about the “solubility in cleave reagent formulations” value [2] of the same molecule?
The value was “highly soluble”.

And the “stability of solutions (discoloration or precipitate)” value [2]?
Its value is “no discoloration or precipitate were observed”.

For `CC(=O)O[C@H](CC(=O)[O-])C[N+](C)(C)C` [O-acetyl-carnitine, O-acetyl-L-carnitine], which “solubility into Cleave reagent” value [2] is on record?
The value was “very soluble”.

What about the “stability against discoloration and precipitation” value [2] of the same molecule?
Its value is “stable against discoloration and precipitation”.

And the “solubility in cleave reagent formulations” value [2]?
The value was “highly soluble”.

What about the “stability of solutions (discoloration or precipitate)” value [2] of the same molecule?
The value was “no discoloration or precipitate were observed”.
